In US20160287613A1, “SALICYLATES FOR USE IN THE TREATMENT OF CANCER” (priority 2013, published 2016):
“Also recorded” adds a separate entry of the source.

Columns and labels:
[1] = tested on: bladder cancer cell line RT 112; assay: Lactate transport (export): enzymatic determination of lactate in supernatants at 340 nm; type: cell-based, human; settings: RT 112, 0.2 mM albumin, pH 6.5 to 7.4, FIG. 1a/b
Experimental: The human bladder tumor cell line RT112 or the human chronic myeloid leukemia cell line K562 were purchased from DKFZ Tumorzell- und datenbank (Institut für experimentelle Pathologie, Heidelberg, FRG) or DSM (Deutsche Sammlung von Mikroorganismen und Zellkulturen GmbH, Braunschweig, FRG) supplemented with 2 mM L-glutamine (BIOCHROM, Berlin, FRG), 1% NEAE (BIOCHROM), 10% heat-inactivated fetal calf serum (BIOCHROM), 100 U/ml penicillin and 50 μg/ml Streptomycin (BIOCHROM) at 37 oc and 5% co2. Only mycoplasma-free cell cultures were used; this was frequently tested using a specific detection kit (BOEHRINGER MANNHEIM, Mannheim, FRG). Qualitative, Enzymatic Determination of Lactate in Supernatants of RT112 Cells at 340 nm RT112 cells were harvested, washed twice and re-suspended in culture media to yield a density of 2×10^5/ml. 500 μl/well of the RT112 cell suspension were seeded into 24 well microtiter plates (BD) and incubated over night at 37° C. and 5% C˜. The Supernatant was replaced by 450 pl pH-adjusted culture medium (pH 6.0-7.4) and 50 111 of the solution of preferred substances or 500 111/well pH-adjusted culture medium alone (control). Again, the cells were incubated for 24 hat 37° C. and 5% CO2. The measurement of lactate in the supernatants at 340 nm (PERKIN-ELMER, Lambda 17. UV-VIS Spectrophotometer, Überlingen, FRG) was performed according to the manufacturer's instructions (SIGMA DIAGNOSTICS, Deisenhofen, FRG; Lactate: Quantitative, Enzymatic Determination of Lactate in Whole Blood at 340 nm (Procedure No. 826-UV)).

RT 112 cancer cells = assay: Proliferation, [3H]-TdR (3H-thymidine) incorporation assay; type: cell-based, human; settings: FIG. 2a
Experimental: The human bladder tumor cell line RT112 or the human chronic myeloid leukemia cell line K562 were purchased from DKFZ Tumorzell- und datenbank (Institut für experimentelle Pathologie, Heidelberg, FRG) or DSM (Deutsche Sammlung von Mikroorganismen und Zellkulturen GmbH, Braunschweig, FRG) supplemented with 2 mM L-glutamine (BIOCHROM, Berlin, FRG), 1% NEAE (BIOCHROM), 10% heat-inactivated fetal calf serum (BIOCHROM), 100 U/ml penicillin and 50 μg/ml Streptomycin (BIOCHROM) at 37 oc and 5% co2. Only mycoplasma-free cell cultures were used; this was frequently tested using a specific detection kit (BOEHRINGER MANNHEIM, Mannheim, FRG). The influence of cytotoxic molecules on the proliferation of RT112 tumor cells was quantified by the measurement of the incorporated tritiated thymidine ([^3H]-TdR) into the cellular DNA of the tumor cells by liquid scintillation counting (LSC). In brief, RT112 cells are harvested, washed twice and re-suspended in culture media (2.5×10^5 /ml). 100 μl/well of the RT112 cell suspension were seeded into 96 well microtiter plates (BECTON DICKINSON) and incubated over night at 37 ° C. and 5% CO2. The supernatant was replaced by 90 μl pH-adjusted culture medium (pH 6.0-7.4) and 10 μl of the solution of preferred substances or 10 μl/well pH-adjusted culture medium alone (control). The cells were incubated for various time periods at 37° C. and 5% CO2. Thereafter, cells were washed twice and re-incubated in fresh pH-adjusted culture medium. And pulsed for 24 h by the addition of 23.125 kBq [^3]-TdR/well (925 kBq/ml, AMERSHAM, Braunschweig, FRG). After freezing and thawing, radioactive DNA of the cultures were transferred to glass fiber filters with an automatic cell harvester (PHARMACIA). The incorporated radioactivity was measured in a liquid scintillation counter (PHARMACIA).

cancer cells = assay: Patient tests with high ASA doses; type: in vivo, human; settings: high ASA doses of 90-120 mg/kg bodyweight
Experimental: But in the course of tests it became apparent how to artificially activate the immune system to be conditioned for killing cancer cells in basic environment. The “protection factor” also can be eliminated by the administration of high ASA doses of between 90-120 mg/kg bodyweight of the patient. […] The administered doses that provide this effect are between 90-120 mg/kg bodyweight of the patient of ASA.

Structure (SMILES)	lactate efflux (export) compared to the Control [1]	proliferation (3H-thymidine incorporation) vs control (RT 112 cancer cells; ASA at 1 mM and 2 mM, pH 6.5-7.4, 0.2 mM albumin)	"protection factor" of cancer cells against immune attack (cancer cells)	proliferation of cancer cells (cancer cells)	proliferation (3H-thymidine incorporation) vs control (RT 112 cancer cells; above pH 7.1, 0.2 mM albumin)	proliferation (3H-thymidine incorporation) vs control (RT 112 cancer cells; up to pH 7.1, 0.2 mM albumin)
CC(=O)Oc1ccccc1C(=O)O [ASA, acetylsalicylic acid]	produce stimulation of lactate export all over the pH range; also recorded: accelerate the lactate efflux all over the pH range from pH 6.5 to 7.4	appreciable enhancement of proliferation	eliminated	proliferation was stopped		
O=C(O)c1cc(-c2ccc(F)cc2F)ccc1O [Diflunisal, 5-[2,4-difluorophenyl]-salicylic acid]	produce stimulation of lactate export all over the pH range; also recorded: accelerate the lactate efflux all over the pH range from pH 6.5 to 7.4				produces enhancement	inhibits proliferation slightly
Nc1ccc(C(=O)O)c(O)c1 [PAS, 4-aminosalicylic acid]	accelerate the lactate efflux all over the pH range from pH 6.5 to 7.4					
